Assay results as given in patent US6492302B1, “Compositions for the protection of plants against the stress of oxidation” (priority 1998, dated 2002).

Assay: antioxidant properties of lipo-amino acids

Substance: butyryl-cystine
- antioxidant properties: does not possess these properties
